Test results: patent publication US20230301998A1, “METHODS AND COMPOSITIONS FOR INDUCTION OF ANTITUMOR IMMUNITY” (Sanford Burnham Prebys Medical Discovery Institute, priority 2020, published 2023)

Tests used:
[1] = target: T1, PRMT5 (Homo sapiens, UniProt O14744); experiment: IP/immunoblot of IFI16 Arg methylation and SHARPIN interaction in human melanoma cells after PRMT5 inhibition; type: cell-based
T1 construct: endogenous in cells; host or cells: A375 and WM115 human melanoma cells
Procedure: Immunoblotting was performed using standard protocols. Melanoma cells were lysed by incubation in RIPA buffer [50 mM Tris-HC1, pH7.4, 1% (v/v) NP40, 0.1% (w/v) sodium deoxycholate, 0.1% (w/v) sodium dodecyl sulfate, 150 mM NaCl, 1mM EDTA, and protease and phosphatase inhibitor cocktails (Thermo Fisher Scientific)] and freeze-thawed 3 times. For immunoprecipitation HEK293T cells were lysed in 1% Triton X-100 buffer [50 mM Tris-HC1, pH7.4, 1% (v/v) Triton X-100, 150 mM NaCl, 1 mM EDTA, and protease and phosphatase inhibitor cocktails (Thermo Fisher Scientific)] and freeze-thawed 3 times. Lysates were then incubated overnight with indicated antibodies and then for 4 hr with protein A/G agarose beads (Santa Cruz Biotechnology) under gentle mixing. Proteins were eluted by addition of lysis buffer and boiled in Laemmli buffer before separation on SDS-PAGE and transfer to a PVDF membrane. Membranes were incubated for 1 h at room temperature with blocking solution [TBS (Tris-buffered Saline); 10 mM Tris-HC1, pH8.0, 150 mM NaCl)] containing 0.1% Tween 20 and 5% nonfat milk followed by incubation overnight at 4° C. with appropriate primary antibodies. Membranes were washed with TBS and incubated 1 h at room temperature with secondary antibody [Alexa 680-conjugated goat anti-rabbit, goat anti-mouse, donkey anti-goat (Life Technologies) or IRDye 800-conjugated goat anti-mouse (Rockland Immunochemicals)], or HRP-conjugated anti-mouse or anti-rabbit IgG antibodies. TidyBlot anti-rabbit secondary antibody (Bio-Rad) was used to detect immunoprecipitated proteins (SHARPIN). Blots were treated with HRP-conjugated antibodies and SuperSignal West Pico or Femto chemiluminescent substrate (ThermoFisher scientific). Protein bands were visualized and quantified using an Odyssey Infrared Imaging System (LiCor Biosciences) or ChemiDoc Imaging System (Bio-Rad). […] STING polymer was analyzed using BlueNative(BN) PAGE (3). […] STING dimers and polymers were detected using a STING antibody (D2P2F, Cell Signaling),Immunofluorescence

[2] = tested on: cGAS/STING pathway; experiment: dsDNA (V70mer)-stimulated cGAS/STING signalling in B16 cells (qPCR, western blot); type: cell-based, mouse
[3] = target: T2, PRMT5 (Mus musculus, UniProt Q8CIG8); experiment: IP/immunoblot of IFI204 Arg methylation and SHARPIN interaction in B16 cells after PRMT5 inhibition; type: cell-based
T2 construct: endogenous in cells; host or cells: B16F10 murine melanoma cells (ATCC)
T2 sequence (Q8CIG8 whole entry): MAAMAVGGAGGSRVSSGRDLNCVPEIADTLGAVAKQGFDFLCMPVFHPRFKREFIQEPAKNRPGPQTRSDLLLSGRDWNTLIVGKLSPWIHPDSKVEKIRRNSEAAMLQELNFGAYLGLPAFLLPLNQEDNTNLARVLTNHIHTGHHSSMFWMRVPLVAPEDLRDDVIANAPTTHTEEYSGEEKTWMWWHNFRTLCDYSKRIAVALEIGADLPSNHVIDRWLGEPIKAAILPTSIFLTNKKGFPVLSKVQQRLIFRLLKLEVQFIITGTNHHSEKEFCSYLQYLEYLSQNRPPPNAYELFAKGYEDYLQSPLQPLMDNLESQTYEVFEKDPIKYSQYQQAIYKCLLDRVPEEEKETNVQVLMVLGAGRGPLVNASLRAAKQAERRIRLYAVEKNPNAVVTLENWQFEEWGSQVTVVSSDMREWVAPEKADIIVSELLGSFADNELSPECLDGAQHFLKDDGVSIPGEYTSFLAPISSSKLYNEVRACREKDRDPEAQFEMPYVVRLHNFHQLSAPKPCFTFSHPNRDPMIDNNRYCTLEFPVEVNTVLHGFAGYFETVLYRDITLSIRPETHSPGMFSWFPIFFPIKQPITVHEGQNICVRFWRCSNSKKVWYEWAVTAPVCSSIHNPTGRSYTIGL
T2 sequence (Q99J09 whole entry partner): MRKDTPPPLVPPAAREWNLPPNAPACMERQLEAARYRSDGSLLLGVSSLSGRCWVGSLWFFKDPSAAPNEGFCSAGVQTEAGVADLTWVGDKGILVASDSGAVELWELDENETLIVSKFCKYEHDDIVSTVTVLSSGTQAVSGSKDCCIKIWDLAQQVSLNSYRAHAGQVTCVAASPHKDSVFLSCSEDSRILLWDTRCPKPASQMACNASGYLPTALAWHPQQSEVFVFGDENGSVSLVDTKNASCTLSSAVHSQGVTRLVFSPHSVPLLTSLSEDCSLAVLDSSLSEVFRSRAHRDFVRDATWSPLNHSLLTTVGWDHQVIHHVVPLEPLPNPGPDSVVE
Procedure: Immunoblotting was performed using standard protocols. Melanoma cells were lysed by incubation in RIPA buffer [50 mM Tris-HC1, pH7.4, 1% (v/v) NP40, 0.1% (w/v) sodium deoxycholate, 0.1% (w/v) sodium dodecyl sulfate, 150 mM NaCl, 1mM EDTA, and protease and phosphatase inhibitor cocktails (Thermo Fisher Scientific)] and freeze-thawed 3 times. For immunoprecipitation HEK293T cells were lysed in 1% Triton X-100 buffer [50 mM Tris-HC1, pH7.4, 1% (v/v) Triton X-100, 150 mM NaCl, 1 mM EDTA, and protease and phosphatase inhibitor cocktails (Thermo Fisher Scientific)] and freeze-thawed 3 times. Lysates were then incubated overnight with indicated antibodies and then for 4 hr with protein A/G agarose beads (Santa Cruz Biotechnology) under gentle mixing. Proteins were eluted by addition of lysis buffer and boiled in Laemmli buffer before separation on SDS-PAGE and transfer to a PVDF membrane. […] Protein bands were visualized and quantified using an Odyssey Infrared Imaging System (LiCor Biosciences) or ChemiDoc Imaging System (Bio-Rad). […] STING polymer was analyzed using BlueNative(BN) PAGE (3). […] STING dimers and polymers were detected using a STING antibody (D2P2F, Cell Signaling),Immunofluorescence

[4] = tested on: B16F10 cells; experiment: B16F10 syngeneic melanoma tumor model in C57BL/6 mice (tumor volume, response, survival, immune phenotyping); type: in vivo, mouse; conditions: for Non-responder / Responder: number of mice
Procedure: Animal experiments. All animal experiments were conducted with approval of the Institutional Animal Care and Use Committee of Sanford Burnham Prebys Medical Discovery Institute (AUF#18-044). The murine melanoma lines B16F10, YUMM1.7 , and YUMMER1.7 were injected subcutaneously (2.0×10^5 cells of B16F10 or YUMM1.7; 4.0 ×10^5 cells of YUMMER1.7) into the lower right flank of 6-8-week-old male C57BL/6 (B16F10, YUMM1.7, YUMMER1.7) or Nod-Scid-Gamma (NSG) (B16F10, YUMMER1.7) mice. To induce transduced inducible shPRMT5, doxycycline (10 mg/ml, Fisher Bioreagents) was prepared in methylcellulose solution (0.5% hydroxylmethylcellulose, 0.2% Tween80) and administered to mice (0.2 ml, oral gavage, QD)Tumor sizes were monitored using calipers. At indicated time points, tumors were collected, 21 weighed and assessed for immune phenotypes using flow cytometry or immunofluorescence. To assess efficacy of immune checkpoint antibodies, mice were grafted with B16F10 or YUMM1.7 (2.0×10^5 cells, s.c.) cells and treated with 200 μg control IgG [rat IgG2a; BE0089 (BioXcell)], anti-CD152 (CTLA-4) [9H10 (BE0131, BioXcell)] or anti-CD279 (PD-1) [RMP1-14 (BE0146, BioXcell)]. Antibodies were injected (i.p.) 3 - 5 times (every 3 days starting from the indicated date). […] Antibodies were injected (i.p.) every 3 days starting one day prior to tumor cell inoculation. The efficiency of depletion was assessed using flow cytometry of blood samples collected at day 8 after tumor inoculation. To assess percent survival of animals, mice bearing tumors exceeding 2,000 mm^3 were defined as “dead”. Gene set enrichment (GSEA) and Ingenuity Pathway (IPA) analyses
(§1) Statistical analyses were performed using Prism software (version 7.00, GraphPad). For comparison of means of two groups with normal (or approximately normal) distributions, an un-paired t-test was applied. To compare means between >2 groups, one-way analysis of variance (ANOVA) was used with multiple comparison corrections (Dunnett's or Tukey's test). For animal experiments, two-way ANOVA (time and treatment) was used with Tukey's multiple comparison test. For Kaplan-Meier plots to compare overall survival, a log-rank test was used to determine significance of differences between groups. To evaluate response to therapy in a mouse model, Fisher's exact test (version 7.00, GraphPad) was used. For that analysis, a tumor with volume <50% of control tumors was defined as “responding to treatment”. For all analyses, a difference with p<0.05 was considered significant, unless specified.
For immune phenotyping, B16F10 tumors were collected and processed by chopping and mincing using a tube-secured cell strainer (70 p.m poresize, Falcon) to prepare single cells for flow cytometry. YUMMER1.7 cells were processed by chopping, following incubation in Collargenase D solution [0.1% (w/v) Collagenase D, 0.5% (w/v) BSA, 100 μg/ml DNase in PBS] for 1 hr at 30° C. and mincing using cells strainer. […] All antibodies were from Biolegend. Stained cells were fixed in 1% formaldehyde (Sigma) in PBS (pH7.4) for 15 min at 4° C. and analyzed with BD LSRFortessa (BD Biosciences) flow cytometry. For intranuclear staining of FoxP3, cells were fixed and permearbilized using a FoxP3/Transcription factor Fixation/Permearbilization kit (ThermoFisher Scientific). […] Cells were stained with antibody cocktail for surface markers [CD45.2, CD4, and CD8] and followed by staining with intraceullar cytokine antibodies [IFN gamma (APC), TNF alpha(FITC) and IL-2(PE)]. The number of specific immune cells per gram of tumor was calculated based on the percentage of specified immune cells identified in FACS (relative to the total number of tumors cells) per tumor weight. […] Cells were fixed and analyzed as above. To assess effects efficiency of in vivo depletion of CD8 T or NK cells, immune cells were isolated from mouse blood and RBCs were lysed using hypotonic buffer [15 mM NH4C1, 10 mM KHCO3, 0.1mM Na2EDTA] for 1 hr at 4° C.

[5] = tested on: YUMM1.7 cells; experiment: YUMM1.7 syngeneic melanoma tumor model in C57BL/6 mice (tumor volume, response); type: in vivo, mouse; conditions: for Non-responder / Responder: number of mice
Procedure: Animal experiments. All animal experiments were conducted with approval of the Institutional Animal Care and Use Committee of Sanford Burnham Prebys Medical Discovery Institute (AUF#18-044). The murine melanoma lines B16F10, YUMM1.7 , and YUMMER1.7 were injected subcutaneously (2.0×10^5 cells of B16F10 or YUMM1.7; 4.0 ×10^5 cells of YUMMER1.7) into the lower right flank of 6-8-week-old male C57BL/6 (B16F10, YUMM1.7, YUMMER1.7) or Nod-Scid-Gamma (NSG) (B16F10, YUMMER1.7) mice. To induce transduced inducible shPRMT5, doxycycline (10 mg/ml, Fisher Bioreagents) was prepared in methylcellulose solution (0.5% hydroxylmethylcellulose, 0.2% Tween80) and administered to mice (0.2 ml, oral gavage, QD)Tumor sizes were monitored using calipers. At indicated time points, tumors were collected, 21 weighed and assessed for immune phenotypes using flow cytometry or immunofluorescence. To assess efficacy of immune checkpoint antibodies, mice were grafted with B16F10 or YUMM1.7 (2.0×10^5 cells, s.c.) cells and treated with 200 μg control IgG [rat IgG2a; BE0089 (BioXcell)], anti-CD152 (CTLA-4) [9H10 (BE0131, BioXcell)] or anti-CD279 (PD-1) [RMP1-14 (BE0146, BioXcell)]. Antibodies were injected (i.p.) 3 - 5 times (every 3 days starting from the indicated date). […] To deplete NK or CD8+ cells, mice were treated with anti-NK1.1 antibody [PK136 (BE0036, BioXcell)] or anti-CD8 antibody [2.43(BE0061, BioXcell), respectively; controls were treated with 200 μtg IgG [rat IgG2b (BE0090, BioXcell)]. Antibodies were injected (i.p.) every 3 days starting one day prior to tumor cell inoculation. The efficiency of depletion was assessed using flow cytometry of blood samples collected at day 8 after tumor inoculation. To assess percent survival of animals, mice bearing tumors exceeding 2,000 mm^3 were defined as “dead”. Gene set enrichment (GSEA) and Ingenuity Pathway (IPA) analyses
as §1

[6] = tested on: Nlrc5 and Nlrc5 target genes; experiment: Expression of antigen presentation genes / surface MHCI in B16 cells; type: cell-based, mouse; conditions: B16 cells, MTA 100 μM for 24 hr, qPCR (FIG. 14E)
[7] = tested on: RIG-I/TLR3; experiment: dsRNA poly(I:C)-induced type I interferon response in B16 cells (qPCR); type: cell-based, mouse; conditions: B16 melanoma cells, poly(I:C) 250 ng/ml 6 hr (FIG. 12J)
[8] = FIG. 17E: B16 in C57BL/6, PRMT5i GSK3326595 40 mg/kg from day 10, anti-PD-1 200 μg/mouse days 11, 14, 17, responder = tumor volume <50% of control
[9] = FIG. 18C: B16F10 in syngeneic mice, PRMT5i GSK3326595 40 mg/kg QD from day 6, anti-PD1 days 8, 11, 14, 17
[10] = FIG. 17F: YUMM1.7 in C57BL/6, PRMT5i from day 7, anti-PD-1 days 8, 11, 14, 17
[11] = FIG. 17G: YUMM1.7 in C57BL/6, anti-CD8 200 μg/mouse every three days, PRMT5i from day 8, anti-PD-1 days 9, 12, 15, 18

T1 sequence (O14744 whole entry): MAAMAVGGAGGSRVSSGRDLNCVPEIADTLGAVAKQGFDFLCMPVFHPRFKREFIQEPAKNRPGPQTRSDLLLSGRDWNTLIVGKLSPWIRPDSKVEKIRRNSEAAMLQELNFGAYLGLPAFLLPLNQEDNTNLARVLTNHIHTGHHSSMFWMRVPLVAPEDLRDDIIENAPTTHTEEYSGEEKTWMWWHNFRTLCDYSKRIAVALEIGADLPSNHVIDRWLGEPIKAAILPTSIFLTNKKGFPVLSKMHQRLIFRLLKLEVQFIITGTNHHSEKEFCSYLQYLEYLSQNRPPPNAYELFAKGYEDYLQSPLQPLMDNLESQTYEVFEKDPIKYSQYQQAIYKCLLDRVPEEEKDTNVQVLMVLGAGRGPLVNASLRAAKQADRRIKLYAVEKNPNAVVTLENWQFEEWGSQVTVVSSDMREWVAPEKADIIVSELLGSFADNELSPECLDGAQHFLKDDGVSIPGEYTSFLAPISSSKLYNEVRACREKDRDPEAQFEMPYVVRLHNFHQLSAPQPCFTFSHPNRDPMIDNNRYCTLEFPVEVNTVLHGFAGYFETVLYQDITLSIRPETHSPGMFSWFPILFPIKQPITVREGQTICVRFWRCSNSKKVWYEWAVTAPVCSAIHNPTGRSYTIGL
T1 sequence (Q9BQA1 whole entry partner): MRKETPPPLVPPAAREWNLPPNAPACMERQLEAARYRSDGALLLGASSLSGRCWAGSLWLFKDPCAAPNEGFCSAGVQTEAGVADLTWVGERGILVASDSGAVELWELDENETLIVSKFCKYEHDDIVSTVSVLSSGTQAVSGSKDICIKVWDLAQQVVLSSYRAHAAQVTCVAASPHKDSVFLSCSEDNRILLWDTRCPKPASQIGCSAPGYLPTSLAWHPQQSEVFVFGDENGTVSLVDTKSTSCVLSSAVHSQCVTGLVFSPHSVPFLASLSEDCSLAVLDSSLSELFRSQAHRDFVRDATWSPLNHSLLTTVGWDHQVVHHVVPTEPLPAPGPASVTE

## O=C(NC[C@H](O)CN1CCc2ccccc2C1)c1cc(NC2COC2)ncn1 [EPZ015666]
[1]; A375 melanoma cells, EPZ015666 10 μM (FIG. 8E)
  decrease in IFI16 methylation: 50%
[1]; A375 melanoma cells, EPZ015666 10 μM (FIG. 10C)
  degree of interaction between IFI16 and SHARPIN: enhanced
[1]; WM115 cells (MTAP-deleted), EPZ015666 10 μM (FIG. 10D)
  decrease in IFI16 methylation: 15%
[2]; B16 cells treated 24 hr, then V70mer dsDNA 500 ng/ml 6 h, qPCR (FIG. 11B)
  expression of Ifnb1, Cc15 and Cxcl10: increased
[2]; B16 melanoma, V70mer 1.5 μg/ml, western blot (FIG. 11G)
  TBK1-IRF3 signaling: activated TBK1-IRF3 signaling
[3]; EPZ015666 10 μM (FIG. 8D)
  IFI204 interaction with SHARPIN: stronger interaction with SHARPIN
[3]; EPZ015666 10 μM (FIG. 8F)
  reduced IFI204 methylation: 57%

## CC(=O)N1CCC(Nc2cc(C(=O)NC[C@H](O)CN3CCc4ccccc4C3)ncn2)CC1 [GSK3326595]
[4]; B16F10, PRMT5i monotherapy 40 mg/kg QD from day 8, tumors day 15, flow cytometry (FIGS. 18E-G)
  immune cell infiltration or activation in tumors: notable changes were not observed
[4]; B16 and YUMM1.7 models, FIGS. 17E-F, 18C-D, table 5
  response rate across experiments: 14.3˜66.7%
[4]; [8]
  Non-responder: 6
  Responder: 1
[4]; FIG. 17E: B16 in C57BL/6, PRMT5i from day 10, anti-PD-1 days 11, 14, 17, percent of responders in group
  Response rate (%): 14.3%
[4]; FIG. 18C: B16F10, PRMT5i 40 mg/kg QD from day 6, anti-PD1 days 8, 11, 14, 17
  Response rate (%): 66.7%
[4]; [9]
  Non-responder: 2
  Responder: 4
[5]; [10]
  Response rate (%): 28.6%
  Non-responder: 5
  Responder: 2
[5]; [11]
  Non-responder: 6
  Responder: 1
[5]; FIG. 17G: YUMM1.7 in C57BL/6, anti-CD8 depletion, PRMT5i from day 8, anti-PD-1 days 9, 12, 15, 18
  Response rate (%): 14.3%

## CSC[C@H]1O[C@@H](n2cnc3c(N)ncnc32)[C@H](O)[C@@H]1O [MTA]
[6]
  basal Nlrc5 expression and that of Nlrc5 target genes (Tap1, B2m, Psmb9): increased

## poly(I:C)
[7]
  Ifnb1 and chemokine expression: induced
